Patent publication US12472231B2 (priority 2020, dated 2025)
In brackets after ≈: the same amount, converted by molar mass. Where a SMILES comes first, the peptide text is derived from it.

Assays:
SARS-CoV-2 [1] = test system: SARS-CoV-2
A(H7N9) virus [2] = test system: A(H7N9) virus
SARS-CoV-2 [3] = test system: SARS-CoV-2; remark: listed apart in the source
rhinovirus [4] = type: binding; settings: peptide coated on ELISA plate, bound virus by RT-qPCR
A(H1N1)pdm09 virus [5] = type: binding
H1N1 HA1 protein = H1N1 HA1 protein (Influenza A virus, UniProt C3W5S1)
rhinovirus [6] = test system: rhinovirus
SARS-CoV [7] = test system: SARS-CoV
SARS-CoV [8] = type: binding
MERS-CoV [9] = type: binding
[10] = test system: virus-host endosomal acidification; type: cell-based
SARS-CoV-2 [11] = type: binding
A(H7N9) virus [12] = test system: A(H7N9) virus; remark: listed apart in the source
A(H1N1)pdm09 virus [13] = type: cell-based
A(H7N9) virus [14] = type: binding
MERS-CoV S protein = MERS-CoV S protein (Middle East respiratory syndrome-related coronavirus, UniProt K9N5Q8)
A(H1N1)pdm09 virus [15] = test system: A(H1N1)pdm09 virus
MERS-CoV [16] = test system: MERS-CoV
[17] = test system: endosomal acidification in MDCK cells; type: cell-based, canine
rhinovirus [18] = test system: rhinovirus; remark: listed apart in the source
[19] = test system: A(H1N1)pdm09 virus RNP release in MDCK cells
MERS-CoV [20] = test system: MERS-CoV; remark: listed apart in the source

MERS-CoV S protein, sequence (K9N5Q8 18-1353 limits assumed): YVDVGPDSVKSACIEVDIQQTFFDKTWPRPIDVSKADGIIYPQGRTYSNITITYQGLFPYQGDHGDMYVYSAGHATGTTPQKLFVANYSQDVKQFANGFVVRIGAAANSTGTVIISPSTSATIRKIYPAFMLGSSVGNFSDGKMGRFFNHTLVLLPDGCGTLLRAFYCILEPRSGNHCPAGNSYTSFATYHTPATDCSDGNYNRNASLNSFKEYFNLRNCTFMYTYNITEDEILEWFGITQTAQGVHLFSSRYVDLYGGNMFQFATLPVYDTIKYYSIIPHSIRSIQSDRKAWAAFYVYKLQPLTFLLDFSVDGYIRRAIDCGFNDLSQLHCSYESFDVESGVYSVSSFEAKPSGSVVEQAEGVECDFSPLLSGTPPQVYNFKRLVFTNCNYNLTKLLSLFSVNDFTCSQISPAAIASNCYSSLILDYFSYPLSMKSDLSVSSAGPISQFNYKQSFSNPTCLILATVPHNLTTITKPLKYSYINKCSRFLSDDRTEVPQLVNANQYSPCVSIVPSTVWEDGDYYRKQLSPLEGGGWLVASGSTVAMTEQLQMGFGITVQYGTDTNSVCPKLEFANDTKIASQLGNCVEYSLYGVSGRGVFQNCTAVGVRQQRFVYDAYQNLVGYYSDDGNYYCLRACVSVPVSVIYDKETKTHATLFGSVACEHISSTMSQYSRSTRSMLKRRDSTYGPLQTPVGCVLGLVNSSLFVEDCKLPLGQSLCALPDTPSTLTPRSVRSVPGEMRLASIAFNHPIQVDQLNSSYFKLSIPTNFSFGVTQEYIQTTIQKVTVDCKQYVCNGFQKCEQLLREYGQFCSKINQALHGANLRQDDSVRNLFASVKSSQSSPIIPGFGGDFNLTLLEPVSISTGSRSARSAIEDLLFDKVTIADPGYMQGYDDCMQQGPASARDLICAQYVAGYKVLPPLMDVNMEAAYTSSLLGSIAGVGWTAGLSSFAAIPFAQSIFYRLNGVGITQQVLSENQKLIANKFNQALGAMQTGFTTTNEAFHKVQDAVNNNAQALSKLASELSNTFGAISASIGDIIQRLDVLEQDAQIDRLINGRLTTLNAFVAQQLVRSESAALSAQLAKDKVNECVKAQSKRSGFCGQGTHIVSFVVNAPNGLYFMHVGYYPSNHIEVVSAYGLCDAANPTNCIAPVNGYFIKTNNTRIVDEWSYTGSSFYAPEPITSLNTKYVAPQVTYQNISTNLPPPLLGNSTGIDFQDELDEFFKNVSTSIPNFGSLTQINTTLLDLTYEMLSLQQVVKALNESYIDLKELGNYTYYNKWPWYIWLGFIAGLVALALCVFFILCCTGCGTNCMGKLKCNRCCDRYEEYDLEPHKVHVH
H1N1 HA1 protein, sequence (C3W5S1 18-344 limits assumed): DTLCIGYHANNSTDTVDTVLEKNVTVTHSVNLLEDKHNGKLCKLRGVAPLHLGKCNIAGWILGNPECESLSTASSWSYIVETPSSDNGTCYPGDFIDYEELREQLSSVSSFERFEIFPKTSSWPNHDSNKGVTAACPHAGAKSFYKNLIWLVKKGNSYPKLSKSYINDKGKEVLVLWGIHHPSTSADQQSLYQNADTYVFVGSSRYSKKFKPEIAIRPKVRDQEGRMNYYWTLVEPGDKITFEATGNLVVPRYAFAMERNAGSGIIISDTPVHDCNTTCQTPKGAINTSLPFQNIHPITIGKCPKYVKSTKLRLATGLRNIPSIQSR

## CC[C@H](C)[C@H](NC(=O)[C@H](C)NC(=O)CNC(=O)[C@@H](N)CC(N)=O)C(=O)N[C@@H](CS)C(=O)N[C@@H](Cc1c[nH]c2ccccc12)C(=O)NCC(=O)N1CCC[C@H]1C(=O)N[C@@H](CS)C(=O)N1CCC[C@H]1C(=O)N[C@H](C(=O)N[C@@H](C)C(=O)N[C@@H](Cc1ccccc1)C(=O)N[C@@H](CCCNC(=N)N)C(=O)N[C@@H](CCC(N)=O)C(=O)N[C@H](C(=O)NCC(=O)N[C@@H](CC(N)=O)C(=O)N[C@@H](CS)C(=O)NCC(=O)N[C@@H](Cc1c[nH]cn1)C(=O)N[C@@H](Cc1ccccc1)C(=O)N[C@@H](CCCCN)C(=O)N[C@H](C(=O)N[C@@H](CCCNC(=N)N)C(=O)N[C@@H](CS)C(=O)N[C@@H](CS)C(=O)N[C@@H](CCCCN)C(=O)N[C@H](C(=O)N[C@@H](CCCNC(=N)N)C(=O)O)[C@@H](C)CC)C(C)C)[C@@H](C)CC)[C@@H](C)O [P9, reference compound]
SARS-CoV-2 [1]
  IC50 against SARS-CoV-2: 2.4 µg/mL (≈ 0.719 µM)
Parainfluenza virus 3
  IC50 against parainfluenza virus 3: > 25.0 µg/mL

## CC[C@H](C)[C@H](NC(=O)[C@H](C)NC(=O)CNC(=O)[C@@H](N)CC(N)=O)C(=O)N[C@@H](CS)C(=O)N[C@@H](Cc1c[nH]c2ccccc12)C(=O)NCC(=O)N1CCC[C@H]1C(=O)N[C@@H](CS)C(=O)N1CCC[C@H]1C(=O)N[C@H](C(=O)N[C@@H](C)C(=O)N[C@@H](Cc1ccccc1)C(=O)N[C@@H](CCCNC(=N)N)C(=O)N[C@@H](CCC(N)=O)C(=O)N[C@H](C(=O)NCC(=O)N[C@@H](CC(N)=O)C(=O)N[C@@H](CS)C(=O)NCC(=O)N[C@@H](CCCNC(=N)N)C(=O)N[C@@H](Cc1ccccc1)C(=O)N[C@@H](CCCNC(=N)N)C(=O)N[C@H](C(=O)N[C@@H](CCCNC(=N)N)C(=O)N[C@@H](CS)C(=O)N[C@@H](CS)C(=O)N[C@@H](CCCNC(=N)N)C(=O)N[C@H](C(=O)N[C@@H](CCCNC(=N)N)C(=O)O)[C@@H](C)CC)C(C)C)[C@@H](C)CC)[C@@H](C)O [P9R] (H-NGAICWGPCPTAFRQIGNCGRFRVRCCRIR-OH)
A(H7N9) virus [2]
  inhibition against A(H7N9) virus compared with P9: significantly stronger inhibition
SARS-CoV-2 [3]
  inhibition of viral replication (viral RNA copies in supernatants): 1000 fold
Rhinovirus [4]
  binding to rhinovirus: could also bind
A(H1N1)pdm09 virus [5]
  binding to A(H1N1)pdm09 virus: could efficiently bind
H1N1 HA1 protein
  binding to viral protein H1N1 HA1: could also bind
Rhinovirus [6]
  inhibition against rhinovirus compared with P9: significantly stronger inhibition
SARS-CoV [7]
  inhibition of viral replication (viral RNA copies in supernatants): 1000 fold
SARS-CoV-2 [1]
  IC50 against SARS-CoV-2: 0.9 µg/mL (≈ 0.264 µM)
SARS-CoV [8]
  binding to SARS-CoV: could also bind
MERS-CoV [9]
  binding to MERS-CoV: could also bind
[10]
  inhibition of virus-host endosomal acidification: could efficiently inhibit the virus-host endosomal acidification
SARS-CoV-2 [11]
  binding to SARS-CoV-2: could efficiently bind
A(H7N9) virus [12]
  inhibition of viral replication (viral RNA copies in supernatants): > 20 fold
A(H1N1)pdm09 virus [13]
  inhibition against A(H1N1)pdm09 virus compared with P9: significantly stronger inhibition
Parainfluenza virus 3
  IC50 against parainfluenza virus 3: > 25.0 µg/mL
A(H7N9) virus [14]
  binding to A(H7N9) virus: could also bind
MERS-CoV S protein
  binding to viral protein MERS-CoV S: could also bind
A(H1N1)pdm09 virus [15]
  inhibition of viral replication (viral RNA copies in supernatants): > 20 fold
MERS-CoV [16]
  inhibition against MERS-CoV compared with P9: significantly stronger inhibition
[17]
  inhibition of endosomal acidification in live cells: could more significantly inhibit endosomal acidification
Rhinovirus [18]
  inhibition of viral replication (viral RNA copies in supernatants): > 20 fold
[19]
  inhibition of viral RNP release into nuclei: could inhibit viral RNP release into nuclei
MERS-CoV [20]
  inhibition of viral replication (viral RNA copies in supernatants): 1000 fold

## CO/C1=C\C(C)=C\[C@@H](C)[C@@H](O)[C@@H](C)C/C(C)=C/C=C/[C@H](OC)[C@@H]([C@@H](C)[C@@H](O)[C@H](C)[C@@]2(O)C[C@@H](O)[C@H](C)[C@@H](C(C)C)O2)OC1=O [bafilomycin A1, reference compound]
[10]
  inhibition of virus-host endosomal acidification: could efficiently inhibit the virus-host endosomal acidification
